Laboratory results published in ChEMBL document CHEMBL5291721, “A preclinical secondary pharmacology resource illuminates target-adverse drug reaction associations of marketed drugs” (Nat Commun, 2023).

How the values were obtained:
[1] = target: T1, D(1A) dopamine receptor (Homo sapiens, UniProt P21728); format: functional, cell-based
[2] = target: D(3) dopamine receptor (Homo sapiens, UniProt P35462)
[3] = target: T2, Gamma-aminobutyric acid receptor subunit alpha-1 (Rattus norvegicus, UniProt P62813); format: functional
[4] = target: T3, 5-hydroxytryptamine receptor 2B (Homo sapiens, UniProt P41595); format: functional, cell-based
[5] = target: T1, D(1A) dopamine receptor; format: functional, cell-based; remark: listed apart in the source
[6] = target: T4, Mu-type opioid receptor (Homo sapiens, UniProt P35372); experiment: biochemical; format: functional
[7] = target: T5, Beta-2 adrenergic receptor (Homo sapiens, UniProt P07550); format: functional, cell-based
[8] = target: T5, Beta-2 adrenergic receptor
[9] = target: T6, Alpha-1A adrenergic receptor (Homo sapiens, UniProt P35348); format: functional, cell-based
T6 sequence (P35348 whole entry): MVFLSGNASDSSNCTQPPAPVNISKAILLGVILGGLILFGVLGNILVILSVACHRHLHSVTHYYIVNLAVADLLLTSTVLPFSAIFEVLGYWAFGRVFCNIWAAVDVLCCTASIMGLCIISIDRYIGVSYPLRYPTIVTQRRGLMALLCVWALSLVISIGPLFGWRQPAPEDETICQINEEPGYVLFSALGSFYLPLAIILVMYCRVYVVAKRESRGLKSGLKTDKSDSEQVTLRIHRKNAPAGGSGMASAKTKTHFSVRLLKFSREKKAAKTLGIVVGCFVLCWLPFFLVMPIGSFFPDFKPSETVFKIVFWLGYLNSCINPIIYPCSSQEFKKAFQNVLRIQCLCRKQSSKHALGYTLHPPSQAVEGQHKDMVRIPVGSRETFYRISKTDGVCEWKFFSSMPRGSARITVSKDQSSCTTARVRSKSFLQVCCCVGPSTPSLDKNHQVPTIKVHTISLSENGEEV

[10] = target: Glutamate receptor ionotropic, NMDA 1 (Rattus norvegicus, UniProt P35439)
[11] = target: T7, 5-hydroxytryptamine receptor 2C (Homo sapiens, UniProt P28335)
T7 sequence (P28335 whole entry): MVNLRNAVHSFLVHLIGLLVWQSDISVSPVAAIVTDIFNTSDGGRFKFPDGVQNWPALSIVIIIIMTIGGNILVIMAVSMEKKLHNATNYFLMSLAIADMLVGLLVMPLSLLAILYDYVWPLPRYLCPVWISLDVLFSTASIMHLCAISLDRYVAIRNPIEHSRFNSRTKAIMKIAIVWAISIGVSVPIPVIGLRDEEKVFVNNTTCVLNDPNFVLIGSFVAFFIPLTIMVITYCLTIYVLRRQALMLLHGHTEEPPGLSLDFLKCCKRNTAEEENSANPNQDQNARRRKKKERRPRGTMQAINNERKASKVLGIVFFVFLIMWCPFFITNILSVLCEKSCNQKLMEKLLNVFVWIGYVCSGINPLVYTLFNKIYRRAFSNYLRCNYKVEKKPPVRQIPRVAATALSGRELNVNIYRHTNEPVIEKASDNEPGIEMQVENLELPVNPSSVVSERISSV

[12] = target: Neuronal acetylcholine receptor subunit alpha-4 (Homo sapiens, UniProt P43681)
[13] = target: T8, Cannabinoid receptor 1 (Homo sapiens, UniProt P21554); format: functional, cell-based
[14] = target: T3, 5-hydroxytryptamine receptor 2B; format: functional, cell-based; remark: listed apart in the source
[15] = target: Histamine H2 receptor (Homo sapiens, UniProt P25021); format: functional, cell-based
[16] = target: T6, Alpha-1A adrenergic receptor; format: functional, cell-based; remark: listed apart in the source
[17] = target: Kappa-type opioid receptor (Homo sapiens, UniProt P41145)
[18] = target: Voltage-dependent L-type calcium channel subunit alpha-1C (Rattus norvegicus, UniProt P22002); format: functional
[19] = target: Delta-type opioid receptor (Homo sapiens, UniProt P41143)
[20] = target: T9, 5-hydroxytryptamine receptor 1A (Homo sapiens, UniProt P08908); format: functional, cell-based
T9 sequence (P08908 whole entry): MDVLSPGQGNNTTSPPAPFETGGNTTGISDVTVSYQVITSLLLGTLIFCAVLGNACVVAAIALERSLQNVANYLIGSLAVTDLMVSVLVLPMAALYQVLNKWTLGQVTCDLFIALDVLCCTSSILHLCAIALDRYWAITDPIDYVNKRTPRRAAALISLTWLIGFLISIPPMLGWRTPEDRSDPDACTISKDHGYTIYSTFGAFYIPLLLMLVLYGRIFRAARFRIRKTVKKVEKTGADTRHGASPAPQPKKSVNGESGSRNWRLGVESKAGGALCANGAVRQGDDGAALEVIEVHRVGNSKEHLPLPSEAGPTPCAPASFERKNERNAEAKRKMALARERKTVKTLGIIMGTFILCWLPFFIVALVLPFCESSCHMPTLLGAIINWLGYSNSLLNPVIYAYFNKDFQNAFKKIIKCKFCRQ

[21] = target: T3, 5-hydroxytryptamine receptor 2B
[22] = target: T4, Mu-type opioid receptor
[23] = target: Gamma-aminobutyric acid receptor subunit alpha-1/alpha-2/beta-2/gamma-2 (Homo sapiens, UniProt P14867+P18507+P47869+P47870); format: functional, cell-based
[24] = target: T8, Cannabinoid receptor 1
[25] = target: T6, Alpha-1A adrenergic receptor
[26] = target: T9, 5-hydroxytryptamine receptor 1A; format: functional, cell-based; remark: listed apart in the source
[27] = target: T10, Amine oxidase [flavin-containing] A (Homo sapiens, UniProt P21397); format: functional
T10 sequence (P21397 whole entry): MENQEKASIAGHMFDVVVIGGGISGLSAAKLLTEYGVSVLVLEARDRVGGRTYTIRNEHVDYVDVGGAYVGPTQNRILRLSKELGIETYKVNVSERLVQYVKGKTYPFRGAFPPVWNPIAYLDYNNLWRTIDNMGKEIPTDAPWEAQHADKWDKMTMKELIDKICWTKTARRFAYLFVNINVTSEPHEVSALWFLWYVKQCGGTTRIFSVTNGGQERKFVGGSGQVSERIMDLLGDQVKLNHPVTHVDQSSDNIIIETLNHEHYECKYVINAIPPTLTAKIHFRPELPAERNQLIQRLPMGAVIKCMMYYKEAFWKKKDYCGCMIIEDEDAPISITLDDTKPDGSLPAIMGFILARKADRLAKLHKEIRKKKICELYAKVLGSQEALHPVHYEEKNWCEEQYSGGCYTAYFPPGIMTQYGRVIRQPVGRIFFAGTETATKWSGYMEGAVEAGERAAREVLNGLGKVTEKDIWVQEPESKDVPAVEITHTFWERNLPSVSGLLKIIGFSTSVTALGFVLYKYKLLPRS

[28] = target: Histamine H3 receptor (Homo sapiens, UniProt Q9Y5N1)
[29] = target: T2, Gamma-aminobutyric acid receptor subunit alpha-1
Note: assay procedure not described here.

T3 sequence (P41595 whole entry): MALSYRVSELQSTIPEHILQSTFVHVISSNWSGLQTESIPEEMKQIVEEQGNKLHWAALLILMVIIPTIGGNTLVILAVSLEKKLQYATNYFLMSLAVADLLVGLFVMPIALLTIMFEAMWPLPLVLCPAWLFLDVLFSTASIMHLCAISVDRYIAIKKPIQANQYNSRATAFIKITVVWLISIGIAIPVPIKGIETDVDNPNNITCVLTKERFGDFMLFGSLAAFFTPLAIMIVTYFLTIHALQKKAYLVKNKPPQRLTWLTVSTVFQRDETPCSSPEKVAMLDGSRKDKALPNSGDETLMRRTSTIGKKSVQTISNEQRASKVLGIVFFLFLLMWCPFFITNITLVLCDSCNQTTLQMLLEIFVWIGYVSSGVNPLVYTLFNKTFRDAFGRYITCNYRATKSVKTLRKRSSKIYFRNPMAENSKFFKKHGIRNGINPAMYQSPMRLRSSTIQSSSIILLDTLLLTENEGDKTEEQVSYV
T2 sequence (P62813 whole entry): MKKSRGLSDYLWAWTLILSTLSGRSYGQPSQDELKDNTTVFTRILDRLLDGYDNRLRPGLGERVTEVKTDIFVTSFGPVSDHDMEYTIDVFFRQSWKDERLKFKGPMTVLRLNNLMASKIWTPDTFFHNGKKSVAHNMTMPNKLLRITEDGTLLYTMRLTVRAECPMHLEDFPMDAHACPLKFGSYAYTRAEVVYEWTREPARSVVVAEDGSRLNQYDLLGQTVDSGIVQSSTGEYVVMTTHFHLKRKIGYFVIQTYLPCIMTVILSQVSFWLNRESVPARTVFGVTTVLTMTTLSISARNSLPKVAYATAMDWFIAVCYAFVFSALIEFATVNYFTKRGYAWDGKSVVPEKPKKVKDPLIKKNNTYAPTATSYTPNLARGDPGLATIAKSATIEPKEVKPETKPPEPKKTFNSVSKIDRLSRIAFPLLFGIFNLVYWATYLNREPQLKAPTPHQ
T1 sequence (P21728 whole entry): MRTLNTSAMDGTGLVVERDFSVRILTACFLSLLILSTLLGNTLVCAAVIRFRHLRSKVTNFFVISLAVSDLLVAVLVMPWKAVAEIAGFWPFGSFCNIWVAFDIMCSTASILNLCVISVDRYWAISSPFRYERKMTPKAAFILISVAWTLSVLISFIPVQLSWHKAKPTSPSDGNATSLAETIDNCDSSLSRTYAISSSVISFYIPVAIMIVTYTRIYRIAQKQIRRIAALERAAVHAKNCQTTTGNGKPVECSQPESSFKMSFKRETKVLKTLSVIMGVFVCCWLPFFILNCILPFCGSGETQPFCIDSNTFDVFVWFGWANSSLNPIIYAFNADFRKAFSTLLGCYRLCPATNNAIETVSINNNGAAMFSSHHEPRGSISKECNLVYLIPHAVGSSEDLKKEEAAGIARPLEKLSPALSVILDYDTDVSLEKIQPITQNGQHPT
T5 sequence (P07550 whole entry): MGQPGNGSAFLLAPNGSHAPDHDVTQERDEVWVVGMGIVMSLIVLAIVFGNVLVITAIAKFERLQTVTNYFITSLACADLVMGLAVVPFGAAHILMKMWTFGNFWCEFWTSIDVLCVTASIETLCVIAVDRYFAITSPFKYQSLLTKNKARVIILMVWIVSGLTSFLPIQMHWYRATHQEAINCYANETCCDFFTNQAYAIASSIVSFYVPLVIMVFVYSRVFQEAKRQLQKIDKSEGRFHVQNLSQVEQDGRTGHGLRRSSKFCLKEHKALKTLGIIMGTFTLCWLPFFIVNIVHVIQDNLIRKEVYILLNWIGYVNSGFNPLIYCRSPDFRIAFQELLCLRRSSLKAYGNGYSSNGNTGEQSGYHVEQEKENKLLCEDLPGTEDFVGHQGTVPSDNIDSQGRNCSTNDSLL
T8 sequence (P21554 whole entry): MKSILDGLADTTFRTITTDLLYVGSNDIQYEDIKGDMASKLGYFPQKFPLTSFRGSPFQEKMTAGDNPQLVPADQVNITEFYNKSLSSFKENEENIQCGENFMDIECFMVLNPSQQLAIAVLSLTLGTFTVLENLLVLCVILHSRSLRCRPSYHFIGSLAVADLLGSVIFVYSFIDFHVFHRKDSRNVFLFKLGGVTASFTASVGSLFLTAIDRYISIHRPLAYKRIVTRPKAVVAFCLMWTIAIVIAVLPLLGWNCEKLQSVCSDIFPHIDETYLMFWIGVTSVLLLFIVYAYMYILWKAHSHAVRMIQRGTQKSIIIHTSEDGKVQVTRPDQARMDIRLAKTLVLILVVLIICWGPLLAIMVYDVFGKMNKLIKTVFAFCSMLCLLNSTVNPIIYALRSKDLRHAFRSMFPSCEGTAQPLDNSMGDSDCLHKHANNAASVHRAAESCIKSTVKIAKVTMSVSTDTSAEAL
T4 sequence (P35372 whole entry): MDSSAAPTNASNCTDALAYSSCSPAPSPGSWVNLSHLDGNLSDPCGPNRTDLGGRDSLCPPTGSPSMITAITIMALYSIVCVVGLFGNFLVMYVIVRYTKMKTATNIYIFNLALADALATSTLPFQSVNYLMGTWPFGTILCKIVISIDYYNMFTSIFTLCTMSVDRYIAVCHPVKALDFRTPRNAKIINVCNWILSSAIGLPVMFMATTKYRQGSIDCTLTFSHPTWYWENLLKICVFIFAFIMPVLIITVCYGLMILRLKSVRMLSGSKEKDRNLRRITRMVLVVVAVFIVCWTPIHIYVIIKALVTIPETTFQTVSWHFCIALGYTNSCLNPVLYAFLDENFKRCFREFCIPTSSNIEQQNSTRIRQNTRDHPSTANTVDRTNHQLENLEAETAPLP
Sequence of Histamine H3 receptor (Q9Y5N1 whole entry): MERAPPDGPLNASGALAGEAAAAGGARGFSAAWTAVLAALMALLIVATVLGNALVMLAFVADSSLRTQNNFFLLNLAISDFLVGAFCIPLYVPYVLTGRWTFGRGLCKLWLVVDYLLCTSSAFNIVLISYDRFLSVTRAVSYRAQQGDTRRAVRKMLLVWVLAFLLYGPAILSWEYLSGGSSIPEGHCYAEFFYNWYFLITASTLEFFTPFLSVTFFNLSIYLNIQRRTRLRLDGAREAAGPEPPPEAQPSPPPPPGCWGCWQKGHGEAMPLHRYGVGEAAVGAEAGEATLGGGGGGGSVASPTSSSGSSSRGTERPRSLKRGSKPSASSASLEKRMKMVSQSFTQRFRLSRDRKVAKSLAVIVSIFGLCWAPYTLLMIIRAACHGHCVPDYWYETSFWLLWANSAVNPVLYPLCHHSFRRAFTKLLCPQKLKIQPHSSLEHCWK
Sequence of Histamine H2 receptor (P25021 whole entry): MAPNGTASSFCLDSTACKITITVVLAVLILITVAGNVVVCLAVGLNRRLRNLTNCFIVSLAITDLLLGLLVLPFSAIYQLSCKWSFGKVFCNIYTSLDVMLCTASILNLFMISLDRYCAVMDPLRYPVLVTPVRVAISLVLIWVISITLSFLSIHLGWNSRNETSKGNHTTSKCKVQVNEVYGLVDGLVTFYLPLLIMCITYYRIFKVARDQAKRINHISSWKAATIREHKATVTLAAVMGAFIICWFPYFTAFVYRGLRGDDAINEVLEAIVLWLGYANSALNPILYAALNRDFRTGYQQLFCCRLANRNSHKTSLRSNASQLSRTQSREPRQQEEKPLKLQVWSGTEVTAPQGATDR
Sequence of Neuronal acetylcholine receptor subunit alpha-4 (P43681 whole entry): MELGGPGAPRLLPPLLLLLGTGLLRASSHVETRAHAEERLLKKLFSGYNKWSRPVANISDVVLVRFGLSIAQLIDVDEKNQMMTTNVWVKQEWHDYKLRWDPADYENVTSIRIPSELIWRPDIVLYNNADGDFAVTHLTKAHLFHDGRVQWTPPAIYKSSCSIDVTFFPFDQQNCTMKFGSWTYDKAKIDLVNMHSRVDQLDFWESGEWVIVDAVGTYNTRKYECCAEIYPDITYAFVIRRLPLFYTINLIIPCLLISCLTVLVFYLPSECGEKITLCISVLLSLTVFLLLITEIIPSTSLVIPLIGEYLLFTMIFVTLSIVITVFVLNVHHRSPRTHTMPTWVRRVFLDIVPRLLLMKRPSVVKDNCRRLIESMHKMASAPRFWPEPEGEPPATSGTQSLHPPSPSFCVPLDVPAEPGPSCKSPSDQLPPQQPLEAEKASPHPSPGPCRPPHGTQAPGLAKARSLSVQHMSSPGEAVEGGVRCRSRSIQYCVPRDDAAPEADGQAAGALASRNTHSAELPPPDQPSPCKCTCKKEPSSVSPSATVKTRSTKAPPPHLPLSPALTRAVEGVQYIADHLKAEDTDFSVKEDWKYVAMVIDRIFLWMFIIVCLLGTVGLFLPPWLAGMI
Sequence of Kappa-type opioid receptor (P41145 whole entry): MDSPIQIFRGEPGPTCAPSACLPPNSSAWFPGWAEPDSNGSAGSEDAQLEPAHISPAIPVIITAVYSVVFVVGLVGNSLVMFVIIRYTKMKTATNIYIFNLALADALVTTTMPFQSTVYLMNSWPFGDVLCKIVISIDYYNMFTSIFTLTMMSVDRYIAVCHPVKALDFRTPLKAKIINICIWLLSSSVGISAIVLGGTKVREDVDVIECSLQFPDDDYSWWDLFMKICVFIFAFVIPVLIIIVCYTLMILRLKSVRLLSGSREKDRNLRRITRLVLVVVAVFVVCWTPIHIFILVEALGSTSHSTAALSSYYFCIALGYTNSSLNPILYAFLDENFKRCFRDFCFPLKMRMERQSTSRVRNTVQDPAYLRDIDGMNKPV
Sequence of D(3) dopamine receptor (P35462 whole entry): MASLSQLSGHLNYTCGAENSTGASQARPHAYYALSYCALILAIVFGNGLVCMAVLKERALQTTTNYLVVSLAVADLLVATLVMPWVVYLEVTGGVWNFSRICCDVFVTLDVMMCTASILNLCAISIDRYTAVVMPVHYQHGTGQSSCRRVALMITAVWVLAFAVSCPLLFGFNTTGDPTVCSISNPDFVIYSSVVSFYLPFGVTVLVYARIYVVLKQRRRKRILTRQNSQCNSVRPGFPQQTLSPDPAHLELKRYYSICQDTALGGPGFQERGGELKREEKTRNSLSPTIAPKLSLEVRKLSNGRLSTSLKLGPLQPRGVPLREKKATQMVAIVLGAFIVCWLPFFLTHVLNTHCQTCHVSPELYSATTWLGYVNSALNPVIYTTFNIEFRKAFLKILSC

Compound `CN1[C@@H]2CC[C@H]1C[C@@H](OC(c1ccccc1)c1ccccc1)C2` [BENZTROPINE] has an AC50 [1] of over 30 µM, an AC50 [2] of 2.83 µM and an AC50 [3] of over 30 µM. For the same compound, the AC50 [4] was 2.6 µM, the AC50 [5] was 21 µM and the AC50 [6] was 5.3 µM. For the same compound, the AC50 [7] was over 30 µM, the AC50 [8] was over 30 µM and the AC50 [9] was 0.96 µM. It also gave an AC50 [10] of over 10 µM, an AC50 [11] of 12.4 µM and an AC50 [12] of over 30 µM. For the same compound, the AC50 [13] was over 30 µM, the AC50 [14] was over 30 µM and the AC50 [15] was over 30 µM. The AC50 [16] was over 30 µM, the AC50 [17] was 0.993 µM and the AC50 [18] was over 10 µM. The AC50 [19] was 11 µM, the AC50 [20] was over 30 µM and the AC50 [21] was 0.137 µM. It also gave an AC50 [22] of 6.26 µM, an AC50 [23] of over 30 µM and an AC50 [24] of over 10 µM. For the same compound, the AC50 [25] was 0.078 µM, the AC50 [26] was over 30 µM and the AC50 [27] was over 30 µM. The AC50 [28] was over 30 µM and the AC50 [29] was over 10 µM.
